In patent publication US20090209602A1, “CHEMICAL COMPOUNDS” (priority 2006, published 2009):

Biological target: T1, human DGAT1 (Homo sapiens, UniProt O75907)
T1 construct: made in house; host or cells: Sf9 insect cells (recombinant baculovirus), membrane fraction
T1 sequence (O75907 1-488): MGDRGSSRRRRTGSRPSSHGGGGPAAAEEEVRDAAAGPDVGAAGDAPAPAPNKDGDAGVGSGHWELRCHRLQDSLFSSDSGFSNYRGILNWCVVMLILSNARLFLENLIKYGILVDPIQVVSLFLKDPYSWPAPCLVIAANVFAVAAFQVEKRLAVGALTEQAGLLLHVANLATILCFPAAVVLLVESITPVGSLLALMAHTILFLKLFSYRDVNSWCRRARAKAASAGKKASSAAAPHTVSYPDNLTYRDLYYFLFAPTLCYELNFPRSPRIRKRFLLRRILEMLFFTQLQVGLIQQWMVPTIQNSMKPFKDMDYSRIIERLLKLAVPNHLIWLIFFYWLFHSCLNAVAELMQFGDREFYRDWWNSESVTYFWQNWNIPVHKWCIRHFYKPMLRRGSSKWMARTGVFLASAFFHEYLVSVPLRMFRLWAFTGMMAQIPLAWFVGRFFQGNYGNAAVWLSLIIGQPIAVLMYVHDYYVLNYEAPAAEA
Assay: Human Enzyme Assay (DGAT1 inhibition)
Type: biochemical
Conditions: human DGAT1 expressed in insect cell (sf9) membranes; 14C oleoyl coenzyme A, 30 minutes, room temperature
Method: The in vitro assay to identify DGAT1 inhibitors uses human DGAT1 expressed in insect cell membranes as the enzyme source (Proc. Natl. Acad. Sci. 1998, 95, 13018-13023). Briefly, sf9 cells were infected with recombinant baculovirus containing human DGAT1 coding sequences and harvested after 48 h. Cells were lysed by sonication and membranes isolated by centrifuging at 28000 rpm for 1 h at 4° C. on a 41% sucrose gradient. The membrane fraction at the interphase was collected, washed, and stored in liquid nitrogen.
DGAT1 activity was assayed by a modification of the method described by Coleman (Methods in Enzymology 1992, 209, 98-102). Compound at 1-10 μM was incubated with 0.4 μg membrane protein, 5 mM MgCl2, and 100 μM 1,2 dioleoyl-sn-glycerol in a total assay volume of 200 μl in plastic tubes. The reaction was started by adding ^14C oleoyl coenzyme A (30 μM final concentration) and incubated at room temperature for 30 minutes. The reaction was stopped by adding 1.5 mL 2-propanol:heptane:water (80:20:2). Radioactive triolein product was separated into the organic phase by adding 1 mL heptane and 0.5 mL 0.1 M carbonate buffer pH 9.5. DGAT1 activity was quantified by counting aliquots of the upper heptane layer by liquid scintillography.

IC50: 100 nM
Structure (SMILES): O=C(O)CC1CCC(c2ccc(NC(=O)c3cnc(Nc4ccccc4)o3)cc2)CC1 (stereo not shown) [Example 1, [4-(4-{[(2-Anilino-1,3-oxazol-5-yl)carbonyl]amino}phenyl)cyclohexyl]acetic acid]
